Test results reported in patent US7285569B2, “Tricycles, their manufacture and use as pharmaceutical agents” (Hoff Hoffmann-La Roche Inc., priority 2004, dated 2007).

Target: T1, Aurora A (Homo sapiens, UniProt O14965)
T1 construct: C-terminally Histidine4 (His4)-tagged Aurora A full-length protein
T1 sequence (O14965 1-403): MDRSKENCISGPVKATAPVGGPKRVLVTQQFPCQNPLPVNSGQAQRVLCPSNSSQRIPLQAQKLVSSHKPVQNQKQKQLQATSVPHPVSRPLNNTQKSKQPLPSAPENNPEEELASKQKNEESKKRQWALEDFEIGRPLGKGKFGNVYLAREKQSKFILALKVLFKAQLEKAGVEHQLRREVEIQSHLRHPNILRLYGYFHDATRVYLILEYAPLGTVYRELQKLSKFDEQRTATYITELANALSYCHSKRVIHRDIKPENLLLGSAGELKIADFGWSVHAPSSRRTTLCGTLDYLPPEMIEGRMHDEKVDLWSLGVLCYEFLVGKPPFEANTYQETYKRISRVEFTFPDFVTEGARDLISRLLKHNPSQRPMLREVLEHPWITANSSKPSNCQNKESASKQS
Experiment: IC50 determination for inhibitors of Aurora A (96 MTP-ELISA)
Assay type: biochemical
Conditions: His4-tagged full-length Aurora A 250 ng/ml, PKB-GSK2 200 nM, ATP 4 μM, 90 min at room temperature; read-out: IC50 Aurora A kinase inhibition
Source text: IC50 Determination for Inhibitors of Aurora A
Aurora A is a serine threonine kinase involved in spindle assembly and chromosome segregation.
The assay is a typically ELISA-type assay where biotinylated substrate (PKB-GSK2) is phosphorylated. Phosphorylation is detected by peroxidase (POD) labelled polyclonal antibody (PAK<M-Ig>S-IgG-POD) and phosphopeptide monoclonal antibody (Mab) (MAK<P-GSK>M-27E5-IgG). The assay is validated for IC50-determination.
Aurora A-His-4 C-terminally Histidine4 (His4)-tagged Aurora A full-length protein, stock solution 0.7 mg/ml, final conc.: 250 ng/ml
PKB-GSK2 biotinylated peptide derived from human GSK3-alpha sequence (Biotin-SGRARTSSFAEPGG-CONH2), stock solution 600 μM, final conc.: 200 nM
ATP Adenosine-5′-triphosphate 1 mM, diluted in kinase buffer, (Roche Diagnostics GmbH, Cat. No.: 127531-001,), final conc.: 4 μM
Kinase buffer 50 mM TRIS, 10 mM MgCl2, 1 mM DTT, 0.1% Tween 20, pH 7.8
This assay is performed in 96-well format for IC50 determination with 5 samples (each with 8 concentrations by twofold testing), 100 μl incubation volume and the following plate layout:
Step/Action 1. Sample preparation: add 24 μl per well samples (descending sequence) diluted in kinase buffer to assay plate (final conc. for DMSO 1%). 2. Add directly 16 μl Aurora-A-his-4 diluted in kinase buffer to assay plate. 3. Add directly 40 μl per well PKB-GSK2/ATP mixture to assay plate, (final conc.: Aurora A=250 ng/ml, GSK2=200 nM, ATP=4 μM). Negative control: without ATP. 4. Incubate assay plate for exactly 90 min at room temperature. 5. Stop reaction by adding 20 μl EDTA in all wells. 6. Wash assay plate 3× with 200 μl washing buffer per well. 7. Add 100 μl MAK<P-GSK>M27E5-IgG (1:10000) and PAK<M-Ig>S-IgG-POD (1:6000) dissolved in 3% BSA/PBS-T to assay plate per well. 8. Incubate assay plate for 60 min at room temperature. 9. Wash assay plate 3× with 200 μl washing buffer per well 10. Add 100 μl ABTS solution to assay plate per well, incubate for approx. 4 min at RT on MTP shaker. 11. Measure absorption at 405/492 nm. 12. Calculate % inhibition as: (1−(Esample−ENC)/(EPC−ENC))×100 13. Calculate IC50 using a non-linear curve fit (XLfit software (ID Business Solution Ltd., Guilford, Surrey, UK))

IC50 | Compound
10 to 500 nM | Cc1cc(-c2nc3cc4[nH]c(=O)n(C)c4cc3[nH]2)n[nH]1 [Example 10, 3-Methyl-6-(5-methyl-1H-pyrazol-3-yl)-3,5-dihydro-1H-benzo[1,2-d;4,5-d′]diimidazol-2-one]
10 to 500 nM | CCc1[nH]nc(-c2nc3cc4c(cc3[nH]2)C(C)(C)C(=O)N4)c1C [Example 19, 2-(5-Ethyl-4-methyl-1H-pyrazol-3-yl)-7,7-dimethyl-5,7-dihydro-1H-imidazo[4,5-f]indol-6-one]
10 to 500 nM | CC1(C)C(=O)Nc2cc3nc(-c4cc(C5CC5)[nH]n4)[nH]c3cc21 [Example 21, 2-(5-Cyclopropyl-1H-pyrazol-3-yl)-7,7-dimethyl-5,7-dihydro-1H-imidazo[4,5-f]indol-6-one]
10 to 500 nM | CC1(C)CC(=O)Nc2cc3nc(-c4cc(C5CC5)[nH]n4)[nH]c3cc21 [Example 25, 2-(5-Cyclopropyl-1H-pyrazol-3-yl)-8,8-dimethyl-1,5,7,8-tetrahydro-imidazo[4,5-g]quinolin-6-one]

Test system: HCT 116 cells
Experiment: CellTiter-Glo assay in HCT 116 cells (antiproliferative activity)
Assay type: cell-based
Conditions: HCT 116 human colon carcinoma cells, 5 days (120 h) incubation, CellTiter-Glo luminescence
Source text: Antiproliferative Activity
CellTiter-Glo™ Assay in HCT 116 Cells
The CellTiter-Glo™ Luminescent Cell Viability Assay (Promega) is a homogeneous method of determining the number of viable cells in culture based on quantitation of the ATP present, which signals the presence of metabolically active cells.
HCT 116 cells (human colon carcinoma, ATCC-No. CCI-247) were cultivated in RPMI 1640 medium with GlutaMAX™ I (Invitrogen, Cat-No. 61870-010), 2.5% Fetal Calf Serum (FCS, Sigma Cat-No. F4135 (FBS)); 100 Units/ml penicillin/100 μg/ml streptomycin (=Pen/Strep from Invitrogen Cat. No. 15140). For the assay the cells were seeded in 384 well plates, 1000 cells per well, in the same medium. The next day the test compounds were added in various concentrations ranging from 30 μM to 0.0015 μM (10 concentrations, 1:3 diluted). After 5 days the CellTiter-Glo™ assay was done according to the instructions of the manufacturer (CellTiter-Glo™ Luminescent Cell Viability Assay, from Promega). In brief: the cell-plate was equilibrated to room temperature for approximately 30 minutes and than the CellTiter-Glo™ reagent was added. The contents were carefully mixed for 15 minutes to induce cell lysis. After 45 minutes the luminescent signal was measured in Victor 2, (scanning multiwell spectrophotometer, Wallac).
Medium: RPMI 1640 with GlutaMAX™ I (Invitrogen, Cat-Nr. 61870), 5% FCS (Sigma Cat.-No. F4135), Pen/Strep (Invitrogen, Cat No. 15140).
HCT116 (ATCC-No. CCI-247): 1000 cells in 60 μl per well of 384 well plate (Greiner 781098, μClear-plate white)
After seeding incubate plates 24 h at 37° C., 5% CO2
2nd. Day: Induction (Treatment with Compounds, 10 Concentrations):
In order to achieve a final concentration of 30 μM as highest concentration 3.5 μl of 10 mM compound stock solution were added directly to 163 μl media. Then step e) of the dilution procedure described below, was followed.
In order to achieve the second highest to the lowest concentrations, a serial dilution with dilution steps of 1:3 was followed according to the procedure (a-e) as described here below: • for the second highest concentration add 10 μl of 10 mM stock solution of compound to 20 μl dimethylsulfoxide (DMSO) • dilute 8×1:3 (always 10 μl to 20 μl DMSO) in this DMSO dilution row (results in 9 wells with concentrations from 3333.3 μM to 0.51 μM) • dilute each concentration 1:47.6 (3.5 μl compound dilution to 163 μl media) • add 10 μl of every concentration to 60 μl media in the cell plate resulting in final concentration of DMSO: 0.3% in every well and resulting in 10 final concentration of compounds ranging from 30 μM to 0.0015 μM. • Each compound is tested in triplicate. • Incubate 120 h (5 days) at 37° C., 5% CO2 Analysis:
Add 30 μl CellTiter-Glo™ Reagent (prepared from CellTiter-Glo™ Buffer and CellTiter-Glo™ Substrate (lyophilized) purchased from Promega) per well, • shake 15 minutes at room temperature • incubate further 45 minutes at room temperature without shaking Measurement:
Victor 2 scanning multiwell spectrophotometer (Wallac), Luminescence mode (0.5 sec/read, 477 nm)
Determine IC50 using a non-linear curve fit (XLfit software (ID Business Solution Ltd., Guilford, Surrey, UK))

Compound | IC50
CC(C)Cc1cc(-c2nc3cc4c(cc3[nH]2)NC(=O)C42CCCC2)[nH]n1 [Example 8, 2-(5-Isobutyl-2H-pyrazol-3-yl)-spiro-5,7-dihydro[cyclopentane-1′,7-imidazo[4,5-f]indol]-6(3H)-one] | 100 to 10000 nM
CCN1C(=O)C(C)(C)c2cc3nc(-c4cc(C)[nH]n4)[nH]c3cc21 [Example 12, 5-Ethyl-7,7-dimethyl-2-(5-methyl-1H-pyrazol-3-yl)-5,7-dihydro-3H-imidazo[4,5-f]indol-6-one] | 100 to 10000 nM
CC1(C)C(=O)Nc2cc3nc(-c4cc[nH]n4)[nH]c3cc21 [Example 20, 7,7-Dimethyl-2-(1H-pyrazol-3-yl)-5,7-dihydro-1H-imidazo[4,5-f]indol-6-one] | 100 to 10000 nM
CCCc1cc(-c2nc3cc4c(cc3[nH]2)N(CC)C(=O)C4(C)C)[nH]n1 [Example 33, 5-Ethyl-7,7-dimethyl-2-(5-propyl-2H-pyrazol-3-yl)-5,7-dihydro-3H-imidazo[4,5-f]indol-6-one; compound with acetic acid] | 100 to 10000 nM
O=C1Nc2cc3nc(-c4cc(C5CC5)[nH]n4)[nH]c3cc2C12CCCC2 [Example 43, 2-(5-Cyclopropyl-2H-pyrazol-3-yl)-spiro-5,7-dihydro[cyclopentane-1′,7-imidazo[4,5-f]indol]-6(3H)-one] | 100 to 10000 nM
CCN1C(=O)C(C)(C)c2cc3nc(-c4cc(OC)[nH]n4)[nH]c3cc21 [Example 44, 5-Ethyl-2-(5-methoxy-1H-pyrazol-3-yl)-7,7-dimethyl-5,7-dihydro-3H-imidazo[4,5-f]indol-6-one] | 100 to 10000 nM
CCN1C(=O)C(C)(C)c2cc3[nH]c(-c4cc(SC)[nH]n4)nc3cc21 [Example 45, 5-Ethyl-7,7-dimethyl-2-(5-methylsulfanyl-1H-pyrazol-3-yl)-5,7-dihydro-1H-imidazo[4,5-f]indol-6-one] | 100 to 10000 nM

The next lines start with the values.

IC50 | Compound
1200 nM | CCCc1cc(-c2nc3cc4c(cc3[nH]2)N(C)C(=O)C4(C)C)[nH]n1 [Example 14, 5,7,7-Trimethyl-2-(5-propyl-2H-pyrazol-3-yl)-5,7-dihydro-3H-imidazo[4,5-f]indol-6-one]
100 to 10000 nM | CCN1C(=O)C(C)(C)c2cc3nc(-c4cc(CC(C)C)n[nH]4)[nH]c3cc21 [Example 15, 5-Ethyl-2-(5-isobutyl-2H-pyrazol-3-yl)-7,7-dimethyl-5,7-dihydro-3H-imidazo[4,5-f]indol-6-one]
100 to 10000 nM | CC(C)Cc1cc(-c2nc3cc4c(cc3[nH]2)N(C)C(=O)C4(C)C)[nH]n1 [Example 16, 2-(5-Isobutyl-2H-pyrazol-3-yl)-5,7,7-trimethyl-5,7-dihydro-3H-imidazo[4,5-f]indol-6-one]
100 to 10000 nM | CC(C)c1cc(-c2nc3cc4c(cc3[nH]2)C(C)(C)C(=O)N4)[nH]n1 [Example 22, 2-(5-Isopropyl-2H-pyrazol-3-yl)-7,7-dimethyl-5,7-dihydro-1H-imidazo[4,5-f]indol-6-one]
100 to 10000 nM | CN1C(=O)C(C)(C)c2cc3nc(-c4cc[nH]n4)[nH]c3cc21 [Example 30, 5,7,7-Trimethyl-2-(1H-pyrazol-3-yl)-5,7-dihydro-3H-imidazo[4,5-f]indol-6-one]
100 to 10000 nM | CCN1C(=O)C(C)(C)c2cc3nc(-c4cc[nH]n4)[nH]c3cc21 [Example 32, 5-Ethyl-7,7-dimethyl-2-(1H-pyrazol-3-yl)-5,7-dihydro-3H-imidazo[4,5-f]indol-6-one]
10000 to 100000 nM | CC1(C)C(=O)Nc2cc3nc(-c4cc(C(F)(F)F)n[nH]4)[nH]c3cc21 [Example 38, 7,7-Dimethyl-2-(5-trifluoromethyl-2H-pyrazol-3-yl)-5,7-dihydro-1H-imidazo[4,5-f]indol-6-one]
100 to 10000 nM | CCN1C(=O)C(C)(C)c2cc3nc(-c4cc(C(F)(F)F)[nH]n4)[nH]c3cc21 [Example 39, 5-Ethyl-7,7-dimethyl-2-(5-trifluoromethyl-1H-pyrazol-3-yl)-5,7-dihydro-3H-imidazo[4,5-f]indol-6-one]
980 nM | CN1C(=O)C(C)(C)c2cc3nc(-c4cc(C(F)(F)F)n[nH]4)[nH]c3cc21 [Example 42, 5,7,7-Trimethyl-2-(5-trifluoromethyl-2H-pyrazol-3-yl)-5,7-dihydro-3H-imidazo[4,5-f]indol-6-one]
